Tests used:
[1] = system: human primary liver cells; conditions: 100 μM drug; 3D model II-2 (human primary liver cells, 5000 cells per micropore) vs 2D comparison model II; FIG. 15
Procedure: (§1) 3. […] In a long-time administration test of the 3D human liver organ model, 100 μM is administered once, and if repeated administration is required, a drug is changed in the middle and the concentration is maintained. Each 3D human liver organ model and each 2D liver organ model need to be provided with a blank group, a negative control group and a positive control group, and each group is provided with six replicate wells.
(§2) 4. […] After drug incubation is completed, the culture medium with the drugs is removed, 100 μL of a mixed solution of a cell titer blue stock solution and a complete culture medium in a ratio of 1:5 is added, incubation is conducted for 3 h at 37° C., and a detection wavelength is […]. For example, the Cell titer 3D glo is added to evaluate the ATP of the 3D liver model, so that the action effect of the drugs is evaluated. After drug incubation is completed, the culture medium with the drugs is removed, 100 μL of a mixed solution of a Cell titer 3D glo stock solution and a complete culture medium in a ratio of 1:1 is added, incubation is conducted for 0.5 h at normal temperature, and detection is conducted in a Luminescence mode. For example, a high-content imaging technology is used for imaging characterization of the number of living and dead cells, and characterization of cell mitochondrial activity and membrane potential to evaluate hepatotoxicity drugs. The embodiment is applicable to, but not limited to, the above characterization method.

[2] = clinical classification; cited from earlier work
[3] = system: human liver cancer cell lines hepG2; format: cell-based; conditions: 100 μM drug; 3D model I-1 (hepG2, 2000 cells per micropore) vs 2D comparison model I; FIG. 8
Procedure: as §1, §2

| SMILES | hepatotoxicity inhibition on the 3D liver organ model compared with the 2D liver organ comparison model [1] | clinically confirmed hepatotoxicity class [2] | hepatotoxicity inhibition on the 3D liver organ model compared with the 2D liver organ comparison model [3] |
| --- | --- | --- | --- |
| COc1ccccc1Oc1c(NS(=O)(=O)c2ccc(C(C)(C)C)cc2)nc(-c2ncccn2)nc1OCCO [compound 5, bosentan] | stronger hepatotoxicity inhibition | low-hepatotoxicity | stronger hepatotoxicity inhibition |
| CN(CCOc1ccc(CC2SC(=O)NC2=O)cc1)c1ccccn1 (stereo not drawn) [compound 6, rosiglitazone] | stronger hepatotoxicity inhibition | low-hepatotoxicity | stronger hepatotoxicity inhibition |
| Cc1ccc(-c2cc(C(F)(F)F)nn2-c2ccc(S(N)(=O)=O)cc2)cc1 [compound 8, celecoxib] | – | low-hepatotoxicity | stronger hepatotoxicity inhibition |
| CN(C)[C@@H]1C(=O)C(C(N)=O)=C(O)[C@@]2(O)C(=O)C3=C(O)c4c(O)cccc4[C@@](C)(O)[C@H]3C[C@@H]12 [compound 9, tetracycline] | stronger hepatotoxicity inhibition | low-hepatotoxicity | – |
| O=C(OCC(O)CO)c1ccccc1Nc1ccnc2cc(Cl)ccc12 (stereo not drawn) [compound 10, glafenine] | stronger hepatotoxicity inhibition | low-hepatotoxicity | – |
| CN(C)CCC=C1c2ccccc2CCc2ccccc21 [compound 12, amitriptyline] | – | low-hepatotoxicity | stronger hepatotoxicity inhibition |
| CC(=O)Nc1ccc(O)cc1 [compound 15, paracetamol] | stronger hepatotoxicity inhibition | – | – |

Reference: patent US20220403339A1, “3D HUMAN LIVER ORGAN MODEL CONSTRUCTING METHOD, 3D HUMAN LIVER ORGAN MODEL AND USE THEREOF” (priority 2020, published 2022)
